Key:
Format in all cases: in vivo, mouse
Balb/C mice [1] = assay: Dextran sodium sulfate (DSS)-induced ulcerative colitis; conditions: for pro-inflammatory genes overexpressed in DSS-induced ulcerative colitis (IL-1β, IL-6, IL-17a, IL-17f, TSLP, MMP13): colon, q-RT-PCR, D14; for colonic villus/crypt structure / mucosal and submucosal cell infiltration: i.p. 1 mg/kg on D11, D12, D13, H&E histology
Experimental: To investigate the anti-inflammatory activity of CpdX and CpdX-D3 on a Th17 ulcerative colitis, Balb/C mice were treated with 3% DSS in drinking water for 13 days, with or without an intraperitoneal administration of either Dex, CpdX, CpdX(eA), CpdX(eB), CpdX-D3, CpdX-D3(eA) or CpdX-D3(eB) (1 mg/kg of body weight) on D11, D12 and D13.
At D14, RNA transcripts were extracted from mouse colons. IL-1β, IL-6, IL-17a, IL-17f, TSLP and MMP13 transcripts were analyzed by q-RT-PCR. Colon samples were also harvested for histological analyses (with H&E staining).

Balb/C mice [2] = assay: Skin atrophy after 8-day topical treatment of dorsal skin; conditions: for epidermal thickness / skin atrophy, histological analysis: eight-day topical treatment; for epidermal thickness: morphometric analysis; for skin atrophy, histological analysis: 'in marked contrast' = no severe atrophy as with Dex; for transcription of the REDD1 gene in dorsal skin: topical 8 days, 1 nmole/cm^2, 'but not' = not increased
Source text: To investigate whether, similarly to Dex, a topical administration of CpdX could result in a skin atrophy, Balb/C mice were shaved on the dorsal skin. Ethanol (vehicle), Dex, CpdX or either one of its two enantiomers CpdX(eA) or CpdX(eB), as well as the deuterated form CpdX-D3 or either one of its two enantiomers CpdX-D3(eA) or CpdX-D3(eB), were topically applied onto the dorsal skin for 8 days.
Upon completion of the treatments, RNA transcripts were extracted from dorsal skin samples and the transcripts of Kindlin-1 and REDD1 genes were analyzed by q-RT-PCR. Histological and morphometric analyses of the dorsal skin were also performed.

B6 male mice [3] = assay: Bone formation after three-month treatment (micro-CT, WNT16 transcripts); conditions: s.c. 1 mg/kg daily, three months
Experimental: B6 male mice (8-week-old) were daily subjected for three months to either a subcutaneous injection of vehicle (NaCl 0.9%), Dex, CpdX, CpdX(eA), CpdX(eB), CpdX-D3, CpdX-D3(eA) or CpdX-D3(eB) (1 mg/kg body weight, diluted in NaCl 0.9%).
From each animal included in the experiments, one femur and the ipsilateral tibia were dissected and preserved in 70% ethanol for further bone microstructure analysis by micro-CT. The FX Quantum micro-CT scanner (Perkin Elmer) was used to perform measurements at the distal femur and midshaft tibia. All scans were performed with an isotropic voxel size of 10 μm, 160 μA tube current and 90 kV tube voltage.
Morphological 3D measurements were performed using the CTAn software (Bruker). Cortical bone parameters, which were measured in the tibia midshaft, included measures of the bone volume fraction as compared to the total volume, cortical thickness, total area, bone area and marrow area. The region of interest was selected from below the distal tibial crest and continued for 20 slices toward the proximal end of the tibia. Trabecular bone parameters were measured in the distal metaphysis of the femurs and included bone volume fraction, trabecular thickness, trabecular number and trabecular spacing. The region of interest was selected from below the distal growth plate where the epiphyseal cap structure completely disappeared and continued for 100 slices toward the proximal end of the femur.
The statistical significance as compared to vehicle treatment was calculated through one-way ANOVA test followed by Dunn's multiple comparison test, *p<0.05; **p<0.01; ***p<0.001; ****p<0.0001.

B6 male mice [4] = assay: Blood glucose and intraperitoneal glucose tolerance test after three-month treatment; conditions: for control of the blood glucose level: three months, conclusion; for blood glucose level in intraperitoneal glucose tolerance test (IPGTT): two-hour period after glucose i.p. injection (2 mg/kg body weight)
Experimental: B6 male mice (8-week-old) were daily subjected for three months to a subcutaneous injection of either vehicle (NaCl 0.9%), Dex, CpdX, CpdX(eA), CpdX(eB), CpdX-D3, CpdX-D3(eA) or CpdX-D3(eB) (1 mg/kg body weight, diluted in vehicle). Mice were over-night-fasted. Mouse blood glucose concentration was measured before (T0) and during two hours (T120) after glucose i.p. injection ([…] body weight).

B6 male mice [5] = assay: Insulin level, insulin tolerance test and liver insulin signalling after three-month treatment; conditions: for insulin resistance: three months, conclusion; for phosphorylated insulin receptor substrate 1 (p-IRS1 S318) in liver extracts: western-blot, 'but not' = no decrease
Experimental: B6 male mice (8-week-old) were subjected daily for three months to a subcutaneous injection of either vehicle (NaCl 0.9%), Dex, CpdX, CpdX(eA), CpdX(eB), CpdX-D3, CpdX-D3(eA) or CpdX-D3(eB) (1 mg/kg body weight, diluted in vehicle). After three months, the blood was collected at 10 a.m. by retro-orbital puncture in lithium-heparin coated vials, and the plasmatic level of insulin was determined.
For the intraperitoneal insulin tolerance test (IPITT), mice were fasted for 6 hours before test. The blood glucose concentration was measured both before (T0) and during a one-hour period after insulin i.p. injection (0.75 U/kg body weight).
Following this three-month treatment, liver samples were harvested and lysed in the RIPA buffer (20 mM Tris pH 8, 150 mM NaCl, 10% glycerol, 1% NP-40 and 2 mM EDTA). Antibodies from Cell Signaling were used to assess by Western-Blotting the relative level of p-IRS1 (S318), IRS-1, p-AKT (S473) and AKT.

B6 male mice [6] = assay: Corticosterone synthesis and adrenal gland after three-month treatment; conditions: for plasmatic corticosterone level: at 10 a.m., compared to control mice (Vehicle); for cortex layers, most notably the fasciculata zone, of the adrenal glands / glomerulosa zone of the adrenal cortex / transcripts of Cyp11a, Cyp11b1 and HSD3β genes in adrenal glands: three months; for cortex layers, most notably the fasciculata zone, of the adrenal glands / glomerulosa zone of the adrenal cortex: histology; for glomerulosa zone of the adrenal cortex: 'but not' = not decreased; for transcripts of Cyp11a, Cyp11b1 and HSD3β genes in adrenal glands: q-RT-PCR
Experimental: B6 male mice (8-week-old) were daily subjected for three months to either a subcutaneous injection of vehicle (NaCl 0.9%), Dex, CpdX, CpdX(eA), CpdX(eB), CpdX-D3, CpdX-D3(eA) or CpdX-D3(eB) (1 mg/kg body weight, diluted in vehicle).
Following this long-term treatment, blood was collected at 10 a.m. and 6 p.m. by retro-orbital puncture in lithium-heparin coated vials, and the plasmatic level of corticosterone was determined. Adrenal glands were harvested and weighted. RNA transcripts were extracted and transcripts of the Cyp11a, Cyp11b1, Cyp11b2 and HSD3β genes were analyzed by q-RT-PCR. Histological analyses of the adrenal glands were also carried out.

epidermal thickness (Balb/C mice [2])	skin atrophy, histological analysis (Balb/C mice [2])	transcription of the REDD1 gene in dorsal skin (Balb/C mice [2])	bone formation in cortical and trabecular bones (B6 male mice [3])	plasmatic corticosterone level (B6 male mice [6])	cortex layers, most notably the fasciculata zone, of the adrenal glands (B6 male mice [6])	glomerulosa zone of the adrenal cortex (B6 male mice [6])	transcripts of Cyp11a, Cyp11b1 and HSD3β genes in adrenal glands (B6 male mice [6])	SMILES	pro-inflammatory genes overexpressed in DSS-induced ulcerative colitis (IL-1β, IL-6, IL-17a, IL-17f, TSLP, MMP13) (Balb/C mice [1])	colonic villus/crypt structure (Balb/C mice [1])	mucosal and submucosal cell infiltration (Balb/C mice [1])	control of the blood glucose level (B6 male mice [4])	blood glucose level in intraperitoneal glucose tolerance test (IPGTT) (B6 male mice [4])	insulin resistance (B6 male mice [5])	phosphorylated insulin receptor substrate 1 (p-IRS1 S318) in liver extracts (B6 male mice [5])
not significantly decreased	in marked contrast	but not	did not affect	much higher	markedly increased	but not	increased	COc1ccc(F)cc1C(C)(C)CC(O)(CNc1ccc2c(c1)COC2=O)C(F)(F)F (racemic) [CpdX, 5-[4-(5-fluoro-2-methoxyphenyl)-2-hydroxy-4-methyl-2-(trifluoromethyl)pentylamino]-isobenzofuran-1(3H)-one]	similarly repressed	almost reestablished	significantly decreased	does not significantly affect	no significant difference	does not induce	but not
not significantly decreased	in marked contrast	but not	did not affect	much higher	markedly increased	but not	increased	[2H]C([2H])([2H])Oc1ccc(F)cc1C(C)(C)CC(O)(CNc1ccc2c(c1)COC2=O)C(F)(F)F (racemic) [CpdX-D3, 5-{4-[2-(methoxy-D3)-5-fluorophenyl]-2-hydroxy-4-methyl-2-(trifluoro-methyl)pentylamino}isobenzofuran-1(3H)-one]	similarly repressed	almost reestablished	significantly decreased	does not significantly affect	no significant difference	does not induce	but not
not significantly decreased	–	but not	did not affect	much higher	markedly increased	but not	increased	COc1ccc(F)cc1C(C)(C)CC(O)(CNc1ccc2c(c1)COC2=O)C(F)(F)F (single isomer, unassigned) [CpdX(eA), 5-[4-(5-fluoro-2-methoxyphenyl)-2-hydroxy-4-methyl-2-(trifluoromethyl)pentylamino]-isobenzofuran-1(3H)-one]	similarly repressed	almost reestablished	significantly decreased	does not significantly affect	no significant difference	does not induce	–
not significantly decreased	–	but not	did not affect	much higher	markedly increased	but not	increased	COc1ccc(F)cc1C(C)(C)CC(O)(CNc1ccc2c(c1)COC2=O)C(F)(F)F (single isomer, unassigned) [CpdX(eB), 5-[4-(5-fluoro-2-methoxyphenyl)-2-hydroxy-4-methyl-2-(trifluoromethyl)pentylamino]-isobenzofuran-1(3H)-one]	similarly repressed	almost reestablished	significantly decreased	does not significantly affect	no significant difference	does not induce	–
not significantly decreased	–	but not	did not affect	much higher	markedly increased	but not	increased	[2H]C([2H])([2H])Oc1ccc(F)cc1C(C)(C)CC(O)(CNc1ccc2c(c1)COC2=O)C(F)(F)F (stereo not drawn) [CpdX-D3(eA), 5-{4-[2-(methoxy-D3)-5-fluorophenyl]-2-hydroxy-4-methyl-2-(trifluoromethyl)pentylamino}isobenzofuran-1(3H)-one]	similarly repressed	almost reestablished	significantly decreased	does not significantly affect	no significant difference	does not induce	–

Source: patent US20190151283A1, “NON-STEROIDAL SELECTIVE GLUCOCORTICOID RECEPTOR AGONISTIC MODULATORS (SEGRAMs) AND USES THEREOF” (ASSOCIATION POUR LA RECHERCHE À L'IGBMC (ARI), priority 2017, published 2019)
